How the values were obtained:
[1] = test system: U937 acute myeloid leukemia cells; test: Viable cell detection with Resazurin, U937 cells; assay type: cell-based; conditions: incubated one day, FIG. 4
Experimental: (§1) U937 acute myeloid leukemia cells and PC3 prostate cancer cells were each grown in 10% FCS+RPMI medium and quadruplicates were inoculated into a 96 well plate, 20,000 cells/well.
(§2) KTPAF50 was incubated with the cells for one day, and viable cells were detected using Resazurin (R&D System) and a spectrophotometer.
In order to determine whether the entire KTPAF50 peptide is required for activity, the experiment described in Example III above, using U937 cells, was repeated with the complete KTPAF50 peptide and fragments thereof.

[2] = test system: PC3 prostate cancer cells; test: Viable cell detection with Resazurin, PC3 cells; assay type: cell-based; conditions: incubated one day, FIG. 4
Experimental: as §1, §2

[3] = test system: human peripheral white blood cells (pWBC); test: Cytokine secretion from PHA-cultured human peripheral white blood cells treated with KTPAF50 (ELISA); assay type: cell-based; conditions: pWBC in PHA containing medium, treated for 3 days
Experimental: In order to determine the potential effect of KTPAF50 on various diseases, KTPAF50 was incubated with human peripheral white blood cells (pWBC), and the amounts of a panel of cytokines were measured.
Total human white blood cells were cultured in PHA containing medium (Biological Industries INC—catalogue number—01-201-1) (2 million cells/well in 2 ml medium). The control cells were not treated.
At day 3 medium was harvested and subjected to ELISA analysis, using e-Bioscience kits for human IL-17 (catalogue number: 88-7176), human INF-γ (catalogue number: 88-7316) and human TNF-α (catalogue number: 88-7346. The results are summarized in FIGS. 1, 2 and 3.

[4] = test system: U937 cells; test: U937 tumor growth in athymic nude mice; assay type: in vivo; conditions: nude mice inoculated s.c. with 15×10^6 U937 cells, 25 ug/mouse injected from day 9, versus saline control; FIG. 6
Experimental: 14 athymic nude female 8-9 week-old mice were purchased from Harlan Biotech, Israel. The mice were inoculated s.c. with 15×10^6 U937 cells. Tumors began to grow, and at day 9 the mice were divided into 2 groups: • A control group which was injected with saline. • A treated group which was injected with KTPAF50 (25 ug/mouse)
At day 20, 4 mice from the control group were sacrificed due to ethical reasons because they had huge tumors.

KTPAF50: KTPAF50 peptide devoid of the signal sequence, 50 amino acids: LRRREQAERGSRRCAIAGEERAMLSPSPLPETPFSPEKGAAFSPIYPRRK; chemically synthesized by Anaspec (listed as Homo sapiens)
viable cells (normalized to the control amount) [1]: significant decrease in viable cells
viable cells (normalized to the control amount) [2]: significant decrease in viable cells
secretion of IL-17 ([3]; FIG. 1): stimulated the pWBC to secrete all three cytokines measured
secretion of INF-γ ([3]; FIG. 2): stimulated the pWBC to secrete all three cytokines measured
secretion of TNF-α ([3]; FIG. 3): stimulated the pWBC to secrete all three cytokines measured
U937 tumor volume / tumor growth [4]: totally prevented tumor growth
